Laboratory results taken from patent US4362667A, “Optical isomers of 4-amino-N-(1-cyclohexyl-3-pyrrolidinyl)-N-methylbenzamide” (A. H. Robins Company, Inc., priority 1981, dated 1982).

Test system: rat
Assay: Cataleptic effects
Format: in vivo
Details: fumarate salt, expressed as free base
Description: The procedure used for determing cataleptic effects of the fumarate salte was based on that of Tedeschi et al., Arch. Int. Pharmacodyn.

| Compound | cataleptic effect, Summary (IP) | cataleptic effect, Summary (PO) | cataleptic effect, Ed50 (estimated) (PO) |
| --- | --- | --- | --- |
| CN(C(=O)c1ccc(N)cc1)C1CCN(C2CCCCC2)C1 (single isomer, unassigned; (+)) [(+)-isomer, (+)-4-Amino-N-(1-cyclohexyl-3-pyrrolidinyl)-N-methylbenzamide] | NSE to 100 | NSE to 200 | – |
| CN(C(=O)c1ccc(N)cc1)C1CCN(C2CCCCC2)C1 (single isomer, unassigned; (-)) [(-)-isomer, (-)-4-amino-N-(1-cyclohexyl-3-pyrrolidinyl)-N-methylbenzamide] | – | – | ~80 mg/kg |
| CN(C(=O)c1ccc(N)cc1)C1CCN(C2CCCCC2)C1 (racemic) [± racemate, 4-Amino-N-(1-cyclohexyl-3-pyrrolidinyl)-N-methylbenzamide] | NSE to 100 | NSE to 200 | – |
